Measurements taken from PubChem BioAssay AID2060331 (Molecular Pharmacology Branch, DTP, NCI, 2025).

Test system: Hs578T multi-cell spheroids, viability
Test: Anticancer human tumor Hs578T cell line growth inhibition [IpAb];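 also: drug exposure lasted 7 days before readout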
Details: for IC50: curve of first compound; for viability, T/C: stronger effect = lower value
Outline: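 Spheroids of 60% malignant cells, 25% HUVEC and 15% MSC were exposed to targeted agents combined with ipatasertib or abemaciclib. Doses started at or near clinical Cmax (10 microM when unknown) and fell in half-log steps.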

[1] = second compound 0.01 µM, first compound 0.0316 µM
[2] = second compound 0.01 µM, first compound 0.1 µM
[3] = second compound 0.0316 µM, first compound 0.0316 µM
[4] = second compound 0.0316 µM, first compound 0.1 µM
[5] = second compound 0.1 µM, first compound 0.0316 µM
[6] = second compound 0.1 µM, first compound 0.1 µM
[7] = second compound 0.316 µM, first compound 0.0316 µM
[8] = second compound 0.316 µM, first compound 0.1 µM
[9] = second compound 1 µM, first compound 0.0316 µM
[10] = second compound 1 µM, first compound 0.1 µM
[11] = second compound 0.01 µM, first compound 0.316 µM
[12] = second compound 0.01 µM, first compound 1 µM
[13] = second compound 0.01 µM, first compound 3.16 µM
[14] = second compound 0.01 µM, first compound 10 µM
[15] = second compound 0.0316 µM, first compound 0.316 µM
[16] = second compound 0.0316 µM, first compound 1 µM
[17] = second compound 0.0316 µM, first compound 3.16 µM
[18] = second compound 0.0316 µM, first compound 10 µM
[19] = second compound 0.1 µM, first compound 0.316 µM
[20] = second compound 0.1 µM, first compound 1 µM
[21] = second compound 0.1 µM, first compound 3.16 µM
[22] = second compound 0.1 µM, first compound 10 µM
[23] = second compound 0.316 µM, first compound 0.316 µM
[24] = second compound 0.316 µM, first compound 1 µM
[25] = second compound 0.316 µM, first compound 3.16 µM
[26] = second compound 0.316 µM, first compound 10 µM
[27] = second compound 1 µM, first compound 0.316 µM
[28] = second compound 1 µM, first compound 1 µM
[29] = second compound 1 µM, first compound 3.16 µM
[30] = second compound 1 µM, first compound 10 µM

| SMILES | IC50 (second compound 0.01 µM) [nM] | IC50 (second compound 0.0316 µM) [nM] | IC50 (second compound 0.1 µM) [nM] | IC50 (second compound 0.316 µM) [nM] | IC50 (second compound 1 µM) [nM] | viability, T/C [1] [%] | viability, T/C [2] [%] | viability, T/C [3] [%] | viability, T/C [4] [%] | viability, T/C [5] [%] | viability, T/C [6] [%] | viability, T/C [7] [%] | viability, T/C [8] [%] | viability, T/C [9] [%] | viability, T/C [10] [%] | viability, T/C [11] [%] | viability, T/C [12] [%] | viability, T/C [13] [%] | viability, T/C [14] [%] | viability, T/C [15] [%] | other results |
| --- | --- | --- | --- | --- | --- | --- | --- | --- | --- | --- | --- | --- | --- | --- | --- | --- | --- | --- | --- | --- | --- |
| CC(C)n1nc(-c2ccc3oc(N)nc3c2)c2c(N)ncnc21 + CCN1CCN(Cc2ccc(Nc3ncc(F)c(-c4cc(F)c5nc(C)n(C(C)C)c5c4)n3)nc2)CC1 | 7.78 | 5.53 | 5.64 | 5.59 | 10.1 | 19.9 | 13.2 | 18.3 | 14.9 | 18.7 | 15.2 | 23.1 | 15.8 | 34.9 | 19.8 | – | – | – | – | – | viability, T/C (second compound 0.01 µM, first compound 0.000316 µM): 94.1%; viability, T/C (second compound 0.01 µM, first compound 0.001 µM): 88.5%; viability, T/C (second compound 0.01 µM, first compound 0.00316 µM): 69.6%; viability, T/C (second compound 0.01 µM, first compound 0.01 µM): 46.2%; viability, T/C (second compound 0.0316 µM, first compound 0.000316 µM): 87.5%; viability, T/C (second compound 0.0316 µM, first compound 0.001 µM): 72.3%; viability, T/C (second compound 0.0316 µM, first compound 0.00316 µM): 63.2%; viability, T/C (second compound 0.0316 µM, first compound 0.01 µM): 39.8%; viability, T/C (second compound 0.1 µM, first compound 0.000316 µM): 78.8%; viability, T/C (second compound 0.1 µM, first compound 0.001 µM): 78.1%; viability, T/C (second compound 0.1 µM, first compound 0.00316 µM): 59.1%; viability, T/C (second compound 0.1 µM, first compound 0.01 µM): 40.8%; viability, T/C (second compound 0.316 µM, first compound 0.000316 µM): 82%; viability, T/C (second compound 0.316 µM, first compound 0.001 µM): 76.2%; viability, T/C (second compound 0.316 µM, first compound 0.00316 µM): 59%; viability, T/C (second compound 0.316 µM, first compound 0.01 µM): 40.6%; viability, T/C (second compound 1 µM, first compound 0.000316 µM): 93.5%; viability, T/C (second compound 1 µM, first compound 0.001 µM): 90.6%; viability, T/C (second compound 1 µM, first compound 0.00316 µM): 69%; viability, T/C (second compound 1 µM, first compound 0.01 µM): 48.8% |
| C=CCn1c(=O)c2cnc(Nc3ccc(N4CCN(C)CC4)cc3)nc2n1-c1cccc(C(C)(C)O)n1 + CCN1CCN(Cc2ccc(Nc3ncc(F)c(-c4cc(F)c5nc(C)n(C(C)C)c5c4)n3)nc2)CC1 | 366 | 376 | 459 | 1260 | 2140 | 92.1 | 86.3 | 86.3 | 75.3 | 82.6 | 72.2 | 80.4 | 76.9 | 94.4 | 92.9 | 51.9 | 27.9 | 16.8 | 17.2 | 53 | viability, T/C [16]: 31.9%; viability, T/C [17]: 21.2%; viability, T/C [18]: 17.4%; viability, T/C [19]: 57.1%; viability, T/C [20]: 36.4%; viability, T/C [21]: 24.9%; viability, T/C [22]: 19.2%; viability, T/C [23]: 69%; viability, T/C [24]: 55.6%; viability, T/C [25]: 32.3%; viability, T/C [26]: 21.4%; viability, T/C [27]: 79.4%; viability, T/C [28]: 65%; viability, T/C [29]: 42.5%; viability, T/C [30]: 24% |
| Cn1nccc1Nc1nccc(-c2ccn(C(CO)c3ccc(Cl)c(F)c3)c(=O)c2)n1 (stereo not given) + CCN1CCN(Cc2ccc(Nc3ncc(F)c(-c4cc(F)c5nc(C)n(C(C)C)c5c4)n3)nc2)CC1 | 5690 | 4080 | 3490 | 6160 | 2060 | 100 | 109 | 92.2 | 99.8 | 79.2 | 86.7 | 79 | 86.3 | 81.8 | 79.7 | 110 | 88.8 | 64.1 | 37.3 | 96.3 | viability, T/C [16]: 73.5%; viability, T/C [17]: 61.6%; viability, T/C [18]: 18.1%; viability, T/C [19]: 88.6%; viability, T/C [20]: 59.6%; viability, T/C [21]: 56.5%; viability, T/C [22]: 27.6%; viability, T/C [23]: 86%; viability, T/C [24]: 71.3%; viability, T/C [25]: 63.8%; viability, T/C [26]: 40.2%; viability, T/C [27]: 85.5%; viability, T/C [28]: 58.8%; viability, T/C [29]: 50.4%; viability, T/C [30]: 39.2% |
